The values that follow come from patent US8722712B2, “Substituted aryl 1 ,2,4-oxadiazoles derivatives as sphingosine-1 phosphate receptors modulators” (Allergan, Inc., priority 2012, dated 2014).

Each structure is given as a SMILES string. pEC50: −log10 of the molar value.

T1 sequence (P21453 whole entry): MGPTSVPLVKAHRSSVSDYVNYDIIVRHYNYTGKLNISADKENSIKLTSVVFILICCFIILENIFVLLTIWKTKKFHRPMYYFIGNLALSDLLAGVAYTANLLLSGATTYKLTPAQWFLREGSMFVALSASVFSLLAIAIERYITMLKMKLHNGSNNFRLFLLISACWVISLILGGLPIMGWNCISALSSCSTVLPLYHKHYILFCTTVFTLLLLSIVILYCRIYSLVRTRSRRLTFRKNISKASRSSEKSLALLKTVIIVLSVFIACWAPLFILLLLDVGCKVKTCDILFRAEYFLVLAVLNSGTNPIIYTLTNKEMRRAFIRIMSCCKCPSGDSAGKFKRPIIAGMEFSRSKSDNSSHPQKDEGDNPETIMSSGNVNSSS

The assay concerns the target T1, human S1P1 receptor (Homo sapiens, UniProt P21453).
T1 construct: expressed in transfected cells; membranes used
Description: GTP γ35S binding assay for S1P1 activity. It counts as biochemical. To be noted: membranes of cells stably expressing the S1P1 receptor, test compounds 0.08 to 5,000 nM. The method, then:
Compounds were synthesized and tested for S1P1 activity using the GTP γ^355 binding assay. These compounds may be assessed for their ability to activate or block activation of the human S1P1 receptor in cells stably expressing the S1P1 receptor.
[…] binding was measured in the medium containing (mM) HEPES 25, pH 7.4, MgCl2 10, NaCl 100, dithitothreitol 0.5, digitonin 0.003%, 0.2 nM GTP γ^35S, and 5 μg membrane protein in a volume of 150 μl. Test compounds were included in the concentration range from 0.08 to 5,000 nM unless indicated otherwise. Membranes were incubated with 100 μM 5′-adenylylimmidodiphosphate for 30 min, and subsequently with 10 μM GDP for 10 min on ice. Drug solutions and membrane were mixed, and then reactions were initiated by adding GTP γ^35S and continued for 30 min at 25° C. Reaction mixtures were filtered over Whatman GF/B filters under vacuum, and washed three times with 3 mL of ice-cold buffer (HEPES 25, pH7.4, MgCl2 10 and NaCl-100). Filters were dried and mixed with scintillant, and counted for ^35S activity using a […]. Agonist-induced GTP γ^35S binding was obtained by subtracting that in the absence of agonist. Binding data were analyzed using a non-linear regression method. In case of antagonist assay, the reaction mixture contained 10 nM […] in the presence of test antagonist at concentrations ranging from 0.08 to 5000 nM.
Broadly, the pEC50 is the negative decadic logarithm of the EC50, by convention in mol/L. High values mean a small EC50, low ones a large EC50. `O=C(O)CCNCc1ccc(-c2noc(CCCCc3ccccc3)n2)cc1` [3-({4-[5-(4-Phenylbutyl)-1,2,4-oxadiazol-3-yl]benzyl}amino)propanoic acid] gave a pEC50 of 6.22.

The molecule `CCc1cc(-c2noc(CCCCc3ccccc3)n2)ccc1CNCCCP(=O)(O)O` [Compound 1, [3-({2-Ethyl-4-[5-(4-phenylbutyl)-1,2,4-oxadiazol-3-yl]benzyl}amino)propyl]phosphonic acid] showed a pEC50 of 7.10.

In the case of `O=P(O)(O)CCCNCc1ccc(-c2noc(CCCCc3ccccc3)n2)c(F)c1` [Compound 2, [3-({3-Fluoro-4-[5-(4-phenylbutyl)-1,2,4-oxadiazol-3-yl]benzyl}amino)propyl]phosphonic acid], the pEC50 is 7.62.

`O=P(O)(O)CCCNCc1ccc(-c2noc(CCCCc3ccccc3)n2)c(Br)c1` [Compound 3, [3-({3-Bromo-4-[5-(4-phenylbutyl)-1,2,4-oxadiazol-3-yl]benzyl}amino)propyl]phosphonic acid] gave a pEC50 of 7.77.

`O=P(O)(O)CCCNCc1ccc(-c2noc(CCCCc3ccccc3)n2)cc1` [Compound 4, [3-({4-[5-(4-Phenylbutyl)-1,2,4-oxadiazol-3-yl]benzyl}amino)propyl]phosphonic acid] showed a pEC50 of 7.20.

As to `O=P(O)(O)CCCNCc1ccc(-c2noc(CCCCc3ccccc3)n2)c(-c2ccco2)c1` [Compound 7, [3-({3-(2-Furyl)-4-[5-(4-phenylbutyl)1,2,4-oxadiazol-3-yl]benzyl}amino)propyl]phosphonic acid], the pEC50 was 6.66.
